Laboratory results taken from US20100076013A1, “Methods of Treatment” (Novartis AG, priority 2006, published 2010).
Each block holds one molecule with its values, some of them ahead of it.

Legend:
MV-4-11 = experiment: CellTiter-Glo cell viability assay; type: cell-based; conditions: Homo sapiens, MV4-11; MV-4-11, AML; 72 hours
Experimental: (§1) See Kelly et al. (2002). […] See Cools et al. (2004).
(§2) The EC50s were determined using CellTiter-Glo (Promega), a bioluminescent, cell viability assay measuring ATP levels in viable cells. Cells were plated in assay plates and incubated with a range of compound concentrations for 72 hours. Cells were lysed and ATP levels were determined using CellTiter-Glo reagent on a luminometer according to manufacturer's instructions. EC50 refers to the concentration of compound that inhibited 50% of cell growth.

NALM-1 = experiment: CellTiter-Glo cell viability assay; type: cell-based; conditions: NALM-1, CML; 72 hours
Experimental: as §2

ML-2 = experiment: CellTiter-Glo cell viability assay; type: cell-based; conditions: Homo sapiens; ML-2, AML; 72 hours
Experimental: as §2

RL = experiment: CellTiter-Glo cell viability assay; type: cell-based; conditions: Homo sapiens, B-NHL, 72 hours
Experimental: as §2

CCRF-CEM = experiment: CellTiter-Glo cell viability assay; type: cell-based; conditions: Homo sapiens, T-ALL, 72 hours
Experimental: as §2

KARPAS-45 = experiment: CellTiter-Glo cell viability assay; type: cell-based; conditions: KARPAS-45, T-ALL; 72 hours
Experimental: as §2

SR = experiment: CellTiter-Glo cell viability assay; type: cell-based; conditions: Homo sapiens, LCIL, 72 hours
Experimental: as §2

CEM/C2 = experiment: CellTiter-Glo cell viability assay; type: cell-based; conditions: Homo sapiens; CEM/C2, T-ALL; 72 hours
Experimental: as §2

JURL-MK2 = experiment: CellTiter-Glo cell viability assay; type: cell-based; conditions: JURL-MK2, CML; 72 hours
Experimental: as §2

LAMA-84 = experiment: CellTiter-Glo cell viability assay; type: cell-based; conditions: Homo sapiens; LAMA-84, CML; 72 hours
Experimental: as §2

JURL-MK1 = experiment: CellTiter-Glo cell viability assay; type: cell-based; conditions: JURL-MK1, CML; 72 hours
Experimental: as §2

MOLT-3 = experiment: CellTiter-Glo cell viability assay; type: cell-based; conditions: Homo sapiens; MOLT-3, T-ALL; 72 hours
Experimental: as §2

Kasumi-1 = experiment: CellTiter-Glo cell viability assay; type: cell-based; conditions: Homo sapiens; Kasumi-1, AML; 72 hours
Experimental: as §2

EM-3 = experiment: CellTiter-Glo cell viability assay; type: cell-based; conditions: EM-3, CML; 72 hours
Experimental: as §2

EM-2 = experiment: CellTiter-Glo cell viability assay; type: cell-based; conditions: Homo sapiens; EM-2, CML; 72 hours
Experimental: as §2

NB-4 = experiment: CellTiter-Glo cell viability assay; type: cell-based; conditions: Homo sapiens; NB-4, AML; 72 hours
Experimental: as §2

Reh = experiment: CellTiter-Glo cell viability assay; type: cell-based; conditions: Homo sapiens, B-ALL, 72 hours
Experimental: as §2

EOL-1 = experiment: CellTiter-Glo cell viability assay; type: cell-based; conditions: Homo sapiens, EOL1; EOL-1, AML; 72 hours
Experimental: as §2

CCRF-HSB-2 = experiment: CellTiter-Glo cell viability assay; type: cell-based; conditions: Homo sapiens; CCRF-HSB-2, T-ALL; 72 hours
Experimental: as §2

HSB-2 = experiment: CellTiter-Glo cell viability assay; type: cell-based; conditions: HSB2; HSB-2, T-ALL; 72 hours
Experimental: as §2

L-428 = experiment: CellTiter-Glo cell viability assay; type: cell-based; conditions: Homo sapiens; L-428, HL; 72 hours
Experimental: as §2

CEM/C1 = experiment: CellTiter-Glo cell viability assay; type: cell-based; conditions: CEM/C1, T-ALL; 72 hours
Experimental: as §2

D1.1 = experiment: CellTiter-Glo cell viability assay; type: cell-based; conditions: D1.1, T-ALL; 72 hours
Experimental: as §2

NOMO-1 = experiment: CellTiter-Glo cell viability assay; type: cell-based; conditions: Homo sapiens; NOMO-1, AML; 72 hours
Experimental: as §2

KE-37 = experiment: CellTiter-Glo cell viability assay; type: cell-based; conditions: Homo sapiens; KE-37, T-ALL; 72 hours
Experimental: as §2

OCI-AML3 = experiment: CellTiter-Glo cell viability assay; type: cell-based; conditions: Homo sapiens, OCI-AML-3, 72 hours
Experimental: as §2

Karpas-299 = experiment: CellTiter-Glo cell viability assay; type: cell-based; conditions: Homo sapiens; Karpas-299, ALCL; 72 hours
Experimental: as §2

PL-21 = experiment: CellTiter-Glo cell viability assay; type: cell-based; conditions: PL-21, AML; 72 hours
Experimental: as §2

KU812 = experiment: CellTiter-Glo cell viability assay; type: cell-based; conditions: Homo sapiens; KU812, CML; 72 hours
Experimental: as §2

JK-1 = experiment: CellTiter-Glo cell viability assay; type: cell-based; conditions: JK-1, CML; 72 hours
Experimental: as §2

[1] = tested on: Mutant FLT3-expressing cells
Experimental: (§3) The IL-3-dependent murine hematopoietic cell line Ba/F3 are transduced with either FLT3-ITD or FLT3-D835Y-containing MSCV retroviruses harboring a neomycin selectable marker, and selected for resistance to neomycin. See Kelly et al. (2002). FLT3-ITD transduced cells are selected for growth in G418 (1 mg/mL). PKC412-resistant Ba/F3 cell lines, which express FLT3-ITD harboring a mutation in the ATP-binding pocket (F691L, A627T, G697R, N676D), are developed as described previously. See Cools et al. (2004). The human AML-derived, FLT3-ITD-expressing cell line, MV4; 11 [see Quentmeier et al. (2003)], is provided by Dr. Scott Armstrong, Dana Farber Cancer Institute, Boston, Mass. The human AML-derived, FLT3-ITD-expressing cell line, MOLM-13, is modified to express luciferase and provided as MOLM13-luc+ by Dr. Andrew Kung, Dana Farber Cancer Institute, Boston, Mass. All cell lines are cultured with 5% CO2 at 37° C., at a concentration of 2×10^5 to 5×10^5 in RPMI (Mediatech, Inc., Herndon, Va.) with 10% fetal calf serum and supplemented with 1% glutamine. Parental Ba/F3 cells expressing wild-type FLT3 are similarly cultured with 15% WEHI-conditioned medium as a source of IL-3. All transfected cell lines are cultured in media supplemented with 1 mg/mL G418.

G697R-Ba/F3 [2] = experiment: Trypan blue exclusion proliferation assay; type: cell-based, murine; conditions: PKC412-resistant line G697R-Ba/F3; FIGS. 1-2
Description: as §1
(§4) See Weisberg et al. (2002).

D835Y-Ba/F3 cells = experiment: Trypan blue exclusion proliferation assay; type: cell-based, murine; conditions: PKC412-sensitive line D835Y-Ba/F3; three-day treatment, FIG. 3
Description: as §1, §4

[3] = tested on: mutant FLT3-expressing cells; conditions: annexin-pi staining and caspase assays; effective concentrations in the micromolar range
Experimental: (§5) The trypan blue exclusion assay has been previously described [see Weisberg et al. (2002)], and is used to determine proliferation of cells cultured in the presence and absence of LBW242. Cell viability is reported as percentage of control (untreated) cells. Error bars represent the standard error of the mean for each data point. Apoptosis of drug-treated cells is measured using the Annexin-V-Fluos Staining Kit (Boehringer Mannheim, Indianapolis, Ind.), as previously described. See Weisberg et al. (2002).

[4] = tested on: PKC412-sensitive and resistant mutant FLT3-expressing cells
Experimental: as §5

G697R-Ba/F3 [5] = experiment: Induction of apoptosis (Annexin-V staining) and caspase activity; type: cell-based, murine; conditions: 1 μM, following 2 days and 3 days, respectively
Description: as §1, §4

[6] = tested on: wild-type FLT3-expressing Ba/F3 cells; conditions: FIG. 3
Experimental: as §3
(§6) N-[1-cyclohexyl-2-oxo-2-(6-phenethyl-octahydro-pyrrolo[2,3-c]pyridin-1-yl-ethyl]-2-methylamino-propionamide is synthesized by Novartis Pharma AG, Basel, Switzerland, and dissolved in DMSO to make 10 mM stock solutions. Serial dilutions are then made, also in DMSO, to obtain final dilutions for cellular assays.
as §5

FLT3-ITD-Ba/F3 [7] = conditions: PKC412-sensitive line FLT3-ITD-Ba/F3; FIGS. 1-2
Experimental: as §3, §6, §5

[8] = tested on: FLT3-ITD-Ba/F3 cells expressing firefly luciferase; experiment: Mouse model of acute leukemia, tumor burden by bioluminescence imaging; type: in vivo, NCr nude mice; conditions: for Student t-test p of bioluminescence (tumor burden), vehicle versus compound alone: 50 mg/kg oral gavage, NCr nude mice
Experimental: FIG. 4 illustrates NCR nude mice injected with 800,000 Ba/F3-FLT3-ITD-luc+ cells via IV tail vein, and then treated for up to 10 days by oral gavage with vehicle (NMP+PEG300), LBW242 (50 mg/kg).

FLT3-ITD-Ba/F3 [9] = conditions: 1 μM, following 2 days and 3 days, respectively
Experimental: as §3, with “Parental Ba/F3 cells expressing wild-type FLT3 are similarly cultured with 15% WEHI-conditioned medium as a source of IL-3. All transfected cell lines are cultured in media supplemented with 1 mg/mL G418.” left out
The trypan blue exclusion assay has been previously described [see Weisberg et al. (2002)], and is used to determine proliferation of cells cultured in the presence and absence of LBW242. […] Apoptosis of drug-treated cells is measured using the Annexin-V-Fluos Staining Kit (Boehringer Mannheim, Indianapolis, Ind.), as previously described. […]

EC50 (MV-4-11): 14 µM | EC50 (CCRF-CEM): 0.676 µM | EC50 (KARPAS-45): 10.5 µM | EC50 (MOLT-3): 10.2 µM | EC50 (CCRF-HSB-2): 6.3 µM | EC50 (OCI-AML3): 4.08 µM | EC50 (Karpas-299): 10.8 µM
Structure (SMILES): CN[C@@H](C)C(=O)N[C@H](C(=O)N1CCC[C@H]1c1nc(C(=O)c2ccc(F)cc2)cs1)C1CCCCC1 [(S)—N—((S)-1-Cyclohexyl-2-{(S)-2-[4-(4-fluoro-benzoyl)-thiazol-2-yl]-pyrrolidin-1-yl}-2-oxo-ethyl)-2-methylamino-propionamide]
EC50 (NALM-1): 3.54 µM | EC50 (ML-2): 0.015 µM | EC50 (RL): 9.68 µM | EC50 (SR): 11.6 µM | EC50 (CEM/C2): 3.83 µM | EC50 (JURL-MK2): 12.7 µM | EC50 (LAMA-84): 0.203 µM | EC50 (JURL-MK1): 11.8 µM | EC50 (Kasumi-1): 8.64 µM | EC50 (EM-3): 13.8 µM | EC50 (EM-2): 0.696 µM | EC50 (NB-4): 0.0146 µM | EC50 (Reh): 0.0791 µM | EC50 (EOL-1): 1.66 µM | EC50 (HSB-2): 0.4 µM | EC50 (L-428): 7.3 µM | EC50 (CEM/C1): 4.6 µM | EC50 (D1.1): 7.35 µM | EC50 (NOMO-1): 4.08 µM | EC50 (KE-37): 5.1 µM | EC50 (PL-21): 3.55 µM | EC50 (KU812): 1.94 µM | EC50 (JK-1): 3.49 µM

Structure (SMILES): CO[C@@H]1[C@H](N(C)C(=O)c2ccccc2)C[C@H]2O[C@]1(C)n1c3ccccc3c3c4c(c5c6ccccc6n2c5c31)C(=O)NC4 [PKC412, reference compound]
rescue of treated cells from cytotoxic effects by WEHI (source of IL-3) [1]: fully rescued

Structure (SMILES): CNC(C)C(=O)NC(C(=O)N1CCC2CCN(CCc3ccccc3)CC21)C1CCCCC1 (centres unmarked) [N-[1-cyclohexyl-2-oxo-2-(6-phenethyl-octahydro-pyrrolo[2,3-c]pyridin-1-yl-ethyl]-2-methylamino-propionamide]
doses at which activity is displayed against the cells in culture (G697R-Ba/F3 [2]): ≥ 1 µM | doses at which activity is displayed against the cells in culture (D835Y-Ba/F3 cells): ≥ 1 µM | induction of apoptosis [3]: modestly observed | inhibition of cells in vitro [4]: inhibits | induction of apoptosis and caspase activity (G697R-Ba/F3 [5]): found | concentrations that led to death of the cells [6]: > 1 µM | inhibitory effects on cell growth ([6]; concentrations ≦1 μM): no inhibitory effects | doses at which activity is displayed against the cells in culture (FLT3-ITD-Ba/F3 [7]): ≥ 1 µM | rescue of treated cells from cytotoxic effects by WEHI (source of IL-3) [1]: did not rescue | Student t-test p of bioluminescence (tumor burden), vehicle versus compound alone ([8]; day 5 post-IV injection): ≤ 0.0773 | Student t-test p of bioluminescence (tumor burden), vehicle versus compound alone ([8]; day 7 post-IV injection): ≤ 0.05625 | tolerability of doses effective against mutant FLT3 ([8]; in vivo): well-tolerated | induction of apoptosis and caspase activity (FLT3-ITD-Ba/F3 [9]): found
